# From ChEMBL document CHEMBL2029318, “Synthesis and SAR of selective small molecule neuropeptide Y Y2 receptor antagonists” (Bioorg Med Chem Lett, 2012)
# Calls of active or inactive are those of the source.
# Columns and labels:
# Format in all cases: functional
# [1] = target: T1, Neuropeptide Y receptor type 2 (Homo sapiens, UniProt P49146); assay: Antagonist activity at neuropeptide Y receptor Y2
# T1 sequence (P49146 whole entry): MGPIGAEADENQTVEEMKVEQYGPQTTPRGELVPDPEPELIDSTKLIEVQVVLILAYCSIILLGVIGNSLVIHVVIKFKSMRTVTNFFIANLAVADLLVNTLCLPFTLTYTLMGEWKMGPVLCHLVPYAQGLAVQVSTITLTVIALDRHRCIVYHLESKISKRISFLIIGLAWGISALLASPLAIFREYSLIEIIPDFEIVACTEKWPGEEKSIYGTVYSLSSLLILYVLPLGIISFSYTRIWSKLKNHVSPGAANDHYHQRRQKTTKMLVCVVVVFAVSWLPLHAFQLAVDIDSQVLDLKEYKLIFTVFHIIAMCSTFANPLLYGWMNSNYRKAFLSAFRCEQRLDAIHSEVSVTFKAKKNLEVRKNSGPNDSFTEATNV
# [2] = target: T2, Neuropeptide Y receptor type 1 (Homo sapiens) (UniProt P25929); assay: Antagonist activity at neuropeptide Y receptor Y1 at 10 uM
# T2 sequence (whole entry): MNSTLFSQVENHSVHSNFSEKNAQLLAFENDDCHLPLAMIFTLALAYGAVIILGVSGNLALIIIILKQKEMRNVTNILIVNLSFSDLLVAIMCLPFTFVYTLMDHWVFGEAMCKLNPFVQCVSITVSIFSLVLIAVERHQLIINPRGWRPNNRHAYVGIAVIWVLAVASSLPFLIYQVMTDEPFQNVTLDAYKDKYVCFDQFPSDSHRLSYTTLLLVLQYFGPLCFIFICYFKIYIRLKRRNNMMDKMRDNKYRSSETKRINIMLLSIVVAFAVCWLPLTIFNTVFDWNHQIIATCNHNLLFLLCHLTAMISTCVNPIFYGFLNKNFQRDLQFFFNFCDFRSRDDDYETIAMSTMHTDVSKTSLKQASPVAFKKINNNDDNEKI
# [3] = target: T3, Neuropeptide Y receptor type 2 (Homo sapiens) (UniProt P49146); assay: Antagonist activity at neuropeptide Y receptor Y2 at 10 uM
# T3 sequence (whole entry): T1 sequence (P49146 whole entry)
# [4] = target: T1, Neuropeptide Y receptor type 2; assay: Partial antagonist activity at neuropeptide Y receptor Y2
SMILES,IC50 [1],Activity [2],Activity [3],IC50 [4]
CN(C)S(=O)(=O)c1ccc(NC(=S)N2CCN(C3c4ccccc4NC(=O)c4ccccc43)CC2)cc1 (stereo unspecified),67 nM,inactive,–,–
CCN(CC)C(=O)c1ccc(OC(=O)N2CCC(C(O)(c3ccccc3)c3ccccc3)CC2)cc1,220 nM,inactive,–,–
CCNC(=O)c1ccc(NC(=S)N2CCC(C(O)(c3ccccc3)c3ccccc3)CC2)cc1,206 nM,inactive,–,–
COC(c1ccccc1)(c1ccccc1)C1CCN(C(=S)Nc2ccc(S(=O)(=O)N(C)C)cc2)CC1,–,inactive,inactive,–
OC(c1ccccc1)(c1ccccc1)C1CCN(C(=S)Nc2cccc(C(F)(F)F)c2)CC1,–,inactive,inactive,–
CCN(CC)S(=O)(=O)c1cccc(OC(=O)N2CCC(C(O)(c3ccccc3)c3ccccc3)CC2)c1,–,inactive,inactive,–
CCOc1ccc(NC(=S)N2CCN(C(c3ccccc3)c3ccccc3)CC2)cc1,371 nM,inactive,–,–
CCC(=O)Nc1ccc(OC(=O)N2CCC(C(O)(c3ccccc3)c3ccccc3)CC2)cc1,–,inactive,inactive,–
CN(C)S(=O)(=O)c1ccc(NC(=S)N2CCC(C(O)(c3ccccc3)c3cccnc3)CC2)cc1 (stereo unspecified),–,inactive,inactive,–
CCOC(=O)c1ccc(NC(=S)N2CCC(C(c3ccccc3)c3ccccc3)CC2)cc1,6760 nM,inactive,–,–
CCOc1ccc(NC(=S)N2CCC(C(c3ccccc3)c3ccccc3)CC2)cc1,> 10000 nM,inactive,–,–
CN(C)C(=O)c1ccc(NC(=S)N2CCC(C(O)(c3ccccc3)c3ccccc3)CC2)cc1,301 nM,inactive,–,–
CCNS(=O)(=O)c1ccc(NC(=S)N2CCC(C(O)(c3ccccc3)c3ccccc3)CC2)cc1,121 nM,inactive,–,–
CCOC(=O)c1cccc(NC(=S)N2CCC(C(O)(c3ccccc3)c3ccccc3)CC2)c1,–,inactive,–,238 nM
O=S(=O)(c1ccc(NC(=S)N2CCC(C(O)(c3ccccc3)c3ccccc3)CC2)cc1)N1CCCC1,117 nM,inactive,–,–
CCOc1ccc(NC(=S)N2CCC(C(O)c3ccccc3)CC2)cc1 (stereo unspecified),–,inactive,inactive,–
COc1ccc(NC(=S)N2CCC(C(O)(c3ccccc3)c3ccccc3)CC2)cc1C(F)(F)F,–,inactive,–,6080 nM
CC(C)Oc1ccc(NC(=S)N2CCC(C(O)(c3ccccc3)c3ccccc3)CC2)cc1C#N,899 nM,inactive,–,–
Cc1ccc(S(=O)(=O)C(c2ccccc2)c2c(C)noc2C)cc1 (stereo unspecified),4400 nM,–,–,–
CN(C)S(=O)(=O)c1ccc(NC(=S)N2CCC(C(O)(c3ccccc3)c3ccc(F)cc3)CC2)cc1 (stereo unspecified),89 nM,inactive,–,–
CCCc1ccc(NC(=S)N2CCC(C(O)(c3ccccc3)c3ccccc3)CC2)cc1,777 nM,inactive,–,–

SMILES,IC50 [1],Activity [2],Activity [3],IC50 [4]
OC(c1ccccc1)(c1ccccc1)C1CCN(C(=S)Nc2ccc(N3CCCCC3)cc2)CC1,–,inactive,–,271 nM
CN(C)S(=O)(=O)c1ccc(NC(=S)N2CCC(C(O)(c3ccccc3)c3ccoc3)CC2)cc1 (stereo unspecified),–,inactive,inactive,–
CCOc1ccc(OC(=O)N2CCC(C(O)(c3ccccc3)c3ccccc3)CC2)cc1,1580 nM,inactive,–,–
CCS(=O)(=O)c1ccc(OC(=O)N2CCC(C(O)(c3ccccc3)c3ccccc3)CC2)cc1,59 nM,inactive,–,–
CCOc1ccc(NC(=S)N2CCC(C(O)(c3ccccc3)c3ccccc3)CC2)cc1C#N,323 nM,inactive,–,–
COc1ccc(OC(=O)N2CCC(C(O)(c3ccccc3)c3ccccc3)CC2)cc1,2680 nM,inactive,–,–
CCN(CC)c1ccc(NC(=S)N2CCC(C(O)(c3ccccc3)c3ccccc3)CC2)cc1Cl,85 nM,inactive,–,–
CS(=O)(=O)Nc1ccc(OC(=O)N2CCC(C(O)(c3ccccc3)c3ccccc3)CC2)cc1,394 nM,inactive,–,–
CCOC(=O)c1ccc(NC(=S)N2CCC(C(O)(c3ccccc3)c3ccccc3)CC2)cc1,207 nM,inactive,–,–
COc1ccc(NC(=S)N2CCC(C(O)(c3ccccc3)c3ccccc3)CC2)cc1,1100 nM,inactive,–,–
OC(c1ccccc1)(c1ccccc1)C1CCN(C(=S)Nc2ccc(N3CCCC3)cc2)CC1,1200 nM,inactive,–,–
OC(c1ccccc1)(c1ccccc1)C1CCN(C(=S)Nc2ccccc2)CC1,–,inactive,inactive,–
CCOc1ccc(NC(=S)N2CCC(C(O)(c3ccccc3)c3c(C)noc3C)CC2)cc1 (stereo unspecified),3300 nM,inactive,–,–
CN(C)S(=O)(=O)c1ccc(NC(=S)N2CCC(C(O)(c3ccccc3)c3ccccn3)CC2)cc1 (stereo unspecified),98 nM,inactive,–,–
CCN(CC)S(=O)(=O)c1ccc(NC(=S)N2CCC(C(O)(c3ccccc3)c3ccccc3)CC2)cc1,136 nM,inactive,–,–
CS(=O)(=O)c1ccc(OC(=O)N2CCC(C(O)(c3ccccc3)c3ccccc3)CC2)cc1,141 nM,inactive,–,–
OC(c1ccccc1)(c1ccccc1)C1CCN(C(=S)Nc2ccc(OC(F)(F)F)cc2)CC1,1050 nM,inactive,–,–
CN(C)S(=O)(=O)c1ccc(NC(=S)N2CCN(C3c4ccccc4CCc4ccccc43)CC2)cc1,–,inactive,inactive,–
CCN(CC)c1ccc(NC(=S)N2CCC(C(O)(c3ccccc3)c3ccccc3)CC2)cc1,72 nM,inactive,–,–
CCOc1ccc(NC(=S)N2CCC(=C(c3ccccc3)c3ccccc3)CC2)cc1,–,inactive,inactive,–
CN(C)S(=O)(=O)c1ccc(NC(=S)N2CCC(C(O)(c3ccccc3)c3ccsc3)CC2)cc1 (stereo unspecified),248 nM,inactive,–,–

SMILES,IC50 [1],Activity [2],Activity [3],IC50 [4]
O=C(Oc1ccc(S(=O)(=O)N2CCCC2)cc1)N1CCC(C(O)(c2ccccc2)c2ccccc2)CC1,49 nM,inactive,–,–
CN(C)S(=O)(=O)c1ccc(NC(=S)N2CCN(C(c3ccccc3)c3ccccc3)CC2)cc1,483 nM,inactive,–,–
OC(c1ccccc1)(c1ccccc1)C1CCN(C(=S)Nc2ccc(C(F)(F)F)cc2Cl)CC1,–,inactive,inactive,–
CCN(CC)S(=O)(=O)c1ccc(OC(=O)N2CCC(C(O)(c3ccccc3)c3ccccc3)CC2)cc1,12 nM,inactive,–,–
CNC(=O)c1ccc(NC(=S)N2CCC(C(O)(c3ccccc3)c3ccccc3)CC2)cc1,1420 nM,inactive,–,–
CCN(CC)C(=O)c1cccc(OC(=O)N2CCC(C(O)(c3ccccc3)c3ccccc3)CC2)c1,–,inactive,inactive,–
CCOc1ccc(NC(=S)N2CCC(C(O)(c3ccccc3)c3ccccc3)CC2)c(C)c1,–,inactive,inactive,–
CCOc1ccc(NC(=S)N2CCC(C(O)(c3ccccc3)c3ccccc3)CC2)c(C(F)(F)F)c1,–,inactive,inactive,–
Cc1ccc(C)c(NS(=O)(=O)c2cc(C(=O)Nc3ccccc3-c3ccccc3)ccc2C)c1,440 nM,–,–,–
CCOc1ccc(NC(=S)N2CCC(C(O)(c3ccccc3)C3CCCCC3)CC2)cc1 (stereo unspecified),–,inactive,inactive,–
CCOc1ccc(NC(=S)N2CCC(C(O)(c3ccccc3)c3ccccc3)CC2)c(F)c1,1350 nM,inactive,–,–
CN(C)c1ccc(NC(=S)N2CCC(C(O)(c3ccccc3)c3ccccc3)CC2)cc1,612 nM,inactive,–,–
COc1cccc(-c2nc(-c3ccc(NC(=O)Cc4ccccc4OC)cc3)no2)c1,1200 nM,–,–,–
CN(C)S(=O)(=O)c1ccc(OC(=O)N2CCC(C(O)(c3ccccc3)c3ccccc3)CC2)cc1,61 nM,inactive,–,–
CCN(CC)C(=O)c1ccc(NC(=S)N2CCC(C(O)(c3ccccc3)c3ccccc3)CC2)cc1,78 nM,inactive,–,–
CC(=O)Nc1ccc(OC(=O)N2CCC(C(O)(c3ccccc3)c3ccccc3)CC2)cc1,–,inactive,inactive,–
OC(c1ccccc1)(c1ccccc1)C1CCN(C(=S)Nc2ccc(C(F)(F)F)cc2)CC1,178 nM,inactive,–,–
CC(C)Oc1ccc(NC(=S)N2CCC(C(O)(c3ccccc3)c3ccccc3)CC2)cc1,1770 nM,inactive,–,–
CCOc1ccc(NC(=S)N2CCC(C(O)(c3ccccc3)c3ccccc3)CC2)cc1,190 nM,inactive,–,–
CN(C)S(=O)(=O)c1ccc(NC(=S)N2CCC(C(O)(c3ccccc3)c3ccccc3)CC2)cc1,19 nM,inactive,–,–
